Source: the supplement of paper PMC10307832

Assays:
Experiment in all cases: relative viability (nuclei count vs DMSO), 5 days (fraction); higher = more cells survive
YM155 + Lapatinib = compound: COCC[n+]1c2c(n(Cc3cnccn3)c1C)C(=O)c1ccccc1C2=O [YM155] + CS(=O)(=O)CCNCc1ccc(-c2ccc3ncnc(Nc4ccc(OCc5cccc(F)c5)c(Cl)c4)c3c2)o1 [Lapatinib] (partner 2 µM)
Summary of the method: (§1)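 Each reported value is a median over duplicate plates. It expresses relative viability: treated-well nuclei count divided by vehicle-well nuclei count. Lung cancer cell lines in 1536-well plates were dosed by pin tool a day after seeding, alone with one drug or with a fixed anchor-drug dose plus five library-drug doses (not always all listed) in √10 steps, and nuclei were counted after 5 days.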

Quizartinib + Phenformin = compound: CC(C)(C)c1cc(NC(=O)Nc2ccc(-c3cn4c(n3)sc3cc(OCCN5CCOCC5)ccc34)cc2)no1 [Quizartinib] + N=C(N)NC(=N)NCCc1ccccc1 [Phenformin] (partner 250 µM)
Summary of the method: as §1

YM155 + Bortezomib = compound: COCC[n+]1c2c(n(Cc3cnccn3)c1C)C(=O)c1ccccc1C2=O [YM155] + CC(C)C[C@H](NC(=O)[C@H](Cc1ccccc1)NC(=O)c1cnccn1)B(O)O [Bortezomib] (partner 0.002 µM)
Summary of the method: as §1

Quizartinib + Tozasertib = compound: CC(C)(C)c1cc(NC(=O)Nc2ccc(-c3cn4c(n3)sc3cc(OCCN5CCOCC5)ccc34)cc2)no1 [Quizartinib] + Cc1cc(Nc2cc(N3CCN(C)CC3)nc(Sc3ccc(NC(=O)C4CC4)cc3)n2)n[nH]1 [Tozasertib] (partner 0.1 µM)
Summary of the method: as §1

Cell Line	relative viability (YM155 + Lapatinib; first compound 0.002 µM)	relative viability (YM155 + Lapatinib; first compound 0.02 µM)	relative viability (YM155 + Lapatinib; first compound 0.06325 µM)	relative viability (Quizartinib + Phenformin; first compound 0.001 µM)	relative viability (Quizartinib + Phenformin; first compound 0.003162 µM)	relative viability (Quizartinib + Phenformin; first compound 0.01 µM)	relative viability (Quizartinib + Phenformin; first compound 0.03162 µM)	relative viability (Quizartinib + Phenformin; first compound 0.1 µM)	relative viability (YM155 + Bortezomib; first compound 0.002 µM)	relative viability (YM155 + Bortezomib; first compound 0.02 µM)	relative viability (YM155 + Bortezomib; first compound 0.06325 µM)	relative viability (Quizartinib + Tozasertib; first compound 0.001 µM)	relative viability (Quizartinib + Tozasertib; first compound 0.003162 µM)	relative viability (Quizartinib + Tozasertib; first compound 0.01 µM)	relative viability (Quizartinib + Tozasertib; first compound 0.03162 µM)	relative viability (Quizartinib + Tozasertib; first compound 0.1 µM)	relative viability (YM155 + Lapatinib; first compound 0.006325 µM)	relative viability (YM155 + Bortezomib; first compound 0.006325 µM)
NCI-H1666	0.629	0.77	0.562	0.581	0.433	0.569	0.568	0.54	0.644	0.815	0.718	0.56	0.594	0.612	0.462	0.557		
NCI-H1651	0.869	0.726	0.601	0.41	0.268	0.35	0.231	0.272	0.937	0.897	0.961	0.604	0.679	0.645	0.351	0.5	0.861	0.946
NCI-H2347	0.917	0.997	0.598	0.268	0.359	0.461	0.395	0.497	0.984	1.24	0.819	0.547	0.419	0.531	0.511	0.521	0.914	1.05
HCC-366	1.07	1.01	0.625	0.615	0.549	0.577	0.601	0.547	1.1	0.917	1.02	0.11	0.0914	0.0628	0.0575	0.0582	0.986	1.1
NCI-H1734	1.09	1.13	0.969	0.3	0.338	0.48	0.391	0.387	1	1.04	0.99	0.237	0.288	0.267	0.274	0.271	1.08	0.818
201T	1.02	0.956	0.96	0.472	0.426	0.476	0.408	0.438	1.04	1.09	1.06	0.878	0.858	0.995	0.887	0.854	0.992	1.13
PC-3 [JPC-3]	0.455	0.437	0.455	0.453	0.466	0.469	0.481	0.506	0.823	0.774	0.904	0.835	0.849	0.909	0.849	0.852	0.455	0.94
HCC-827	0.169	0.177	0.191	0.372	0.385	0.44	0.402	0.404	1.01	1.02	0.912	0.356	0.516	0.458	0.405	0.411	0.198	1.04
LXF-289	0.891	0.905	0.713	0.485	0.496	0.529	0.497	0.539	0.944	0.989	1.02	0.16	0.207	0.196	0.21	0.247	0.892	0.93
